Tested on: 186277-243-T-J2-PDC complex spheroid growth, % test/control
Experiment: Anticancer human tumor 186277-243-T-J2-PDC patient-derived colon adenocarcinoma cell line growth inhibition [Asc]
Conditions: for IC50: curve of first compound; for viability, T/C: stronger effect = lower value
Procedure, shortened: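 Tumor cells were grown as multicellular spheroids with stromal HUVEC and mesenchymal stem cells and treated singly or in combination. Concentrations fell in half-log steps from the clinical Cmax, or from 10 microM where none was known.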
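Also: spheroids exposed to agents for 7 days.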
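For viability, T/C in this document: 100% = DMSO vehicle control wells.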

## COc1c(OCCCN2CCOCC2)ccc2c3n(c(=NC(=O)c4cnc(N)nc4)nc12)CCN3 + Cc1c(S(C)(=O)=O)c(-c2cc(F)cc(N3CCN(c4ccc(NS(=O)(=O)c5ccc(NC(CCN6CCC(C(=O)OCCCP(=O)(O)O)CC6)CSc6ccccc6)c(S(=O)(=O)C(F)(F)F)c5)cc4)CC3)c2)c(-c2ccc(Cl)cc2)n1C(C)C
Second compound 0.1 µM
  IC50: 43.4 nM
Second compound 0.316 µM
  IC50: 40.2 nM
Second compound 1 µM
  IC50: 33.8 nM
Second compound 3.16 µM
  IC50: 27.2 nM
Second compound 10 µM
  IC50: 31.8 nM
Second compound 0.1 µM, first compound 0.00316 µM
  viability, T/C: 107%
Second compound 0.1 µM, first compound 0.01 µM
  viability, T/C: 101%
Second compound 0.1 µM, first compound 0.0316 µM
  viability, T/C: 53.2%
Second compound 0.1 µM, first compound 0.1 µM
  viability, T/C: 31.5%
Second compound 0.1 µM, first compound 0.316 µM
  viability, T/C: 12.4%
Second compound 0.1 µM, first compound 1 µM
  viability, T/C: 8.11%
Second compound 0.316 µM, first compound 0.00316 µM
  viability, T/C: 98%
Second compound 0.316 µM, first compound 0.01 µM
  viability, T/C: 98.1%
Second compound 0.316 µM, first compound 0.0316 µM
  viability, T/C: 53.2%
Second compound 0.316 µM, first compound 0.1 µM
  viability, T/C: 24.9%
Second compound 0.316 µM, first compound 0.316 µM
  viability, T/C: 7.34%
Second compound 0.316 µM, first compound 1 µM
  viability, T/C: 4.21%
Second compound 1 µM, first compound 0.00316 µM
  viability, T/C: 95.9%
Second compound 1 µM, first compound 0.01 µM
  viability, T/C: 84.1%
Second compound 1 µM, first compound 0.0316 µM
  viability, T/C: 50.3%
Second compound 1 µM, first compound 0.1 µM
  viability, T/C: 21.9%
Second compound 1 µM, first compound 0.316 µM
  viability, T/C: 6.19%
Second compound 1 µM, first compound 1 µM
  viability, T/C: 2%
Second compound 3.16 µM, first compound 0.00316 µM
  viability, T/C: 91.7%
Second compound 3.16 µM, first compound 0.01 µM
  viability, T/C: 99.2%
Second compound 3.16 µM, first compound 0.0316 µM
  viability, T/C: 42.8%
Second compound 3.16 µM, first compound 0.1 µM
  viability, T/C: 15.7%
Second compound 3.16 µM, first compound 0.316 µM
  viability, T/C: 2.68%
Second compound 3.16 µM, first compound 1 µM
  viability, T/C: 1.29%
Second compound 10 µM, first compound 0.00316 µM
  viability, T/C: 82.4%
Second compound 10 µM, first compound 0.01 µM
  viability, T/C: 83.9%
Second compound 10 µM, first compound 0.0316 µM
  viability, T/C: 48%
Second compound 10 µM, first compound 0.1 µM
  viability, T/C: 15.5%
Second compound 10 µM, first compound 0.316 µM
  viability, T/C: 4.11%
Second compound 10 µM, first compound 1 µM
  viability, T/C: 1.39%

## NC(=O)C(=Cn1cnc(-c2cc(C(F)(F)F)cc(C(F)(F)F)c2)n1)c1cncnc1 + CNC(C)C(=O)NC1CN(S(=O)(=O)c2cccc(S(=O)(=O)N3CCC4CCC(C(=O)NC(c5ccccc5)c5ccccc5)N4C(=O)C(NC(=O)C(C)NC)C3)c2)CCC2CCC(C(=O)NC(c3ccccc3)c3ccccc3)N2C1=O
Second compound 0.01 µM
  IC50: 192 nM
Second compound 0.0316 µM
  IC50: 204 nM
Second compound 0.1 µM
  IC50: 210 nM
Second compound 0.316 µM
  IC50: 194 nM
Second compound 1 µM
  IC50: 178 nM
Second compound 0.01 µM, first compound 0.000949 µM
  viability, T/C: 127%
Second compound 0.01 µM, first compound 0.003 µM
  viability, T/C: 102%
Second compound 0.01 µM, first compound 0.00949 µM
  viability, T/C: 98.9%
Second compound 0.01 µM, first compound 0.03 µM
  viability, T/C: 128%
Second compound 0.01 µM, first compound 0.0949 µM
  viability, T/C: 90.3%
Second compound 0.01 µM, first compound 0.3 µM
  viability, T/C: 24.3%
Second compound 0.0316 µM, first compound 0.000949 µM
  viability, T/C: 105%
Second compound 0.0316 µM, first compound 0.003 µM
  viability, T/C: 113%
Second compound 0.0316 µM, first compound 0.00949 µM
  viability, T/C: 93.8%
Second compound 0.0316 µM, first compound 0.03 µM
  viability, T/C: 109%
Second compound 0.0316 µM, first compound 0.0949 µM
  viability, T/C: 96.9%
Second compound 0.0316 µM, first compound 0.3 µM
  viability, T/C: 26.4%
Second compound 0.1 µM, first compound 0.000949 µM
  viability, T/C: 114%
Second compound 0.1 µM, first compound 0.003 µM
  viability, T/C: 109%
Second compound 0.1 µM, first compound 0.00949 µM
  viability, T/C: 113%
Second compound 0.1 µM, first compound 0.03 µM
  viability, T/C: 118%
Second compound 0.1 µM, first compound 0.0949 µM
  viability, T/C: 107%
Second compound 0.1 µM, first compound 0.3 µM
  viability, T/C: 24.6%
Second compound 0.316 µM, first compound 0.000949 µM
  viability, T/C: 103%
Second compound 0.316 µM, first compound 0.003 µM
  viability, T/C: 107%
Second compound 0.316 µM, first compound 0.00949 µM
  viability, T/C: 110%
Second compound 0.316 µM, first compound 0.03 µM
  viability, T/C: 111%
Second compound 0.316 µM, first compound 0.0949 µM
  viability, T/C: 97.8%
Second compound 0.316 µM, first compound 0.3 µM
  viability, T/C: 20.3%
Second compound 1 µM, first compound 0.000949 µM
  viability, T/C: 93.6%
Second compound 1 µM, first compound 0.003 µM
  viability, T/C: 108%
Second compound 1 µM, first compound 0.00949 µM
  viability, T/C: 113%
Second compound 1 µM, first compound 0.03 µM
  viability, T/C: 111%
Second compound 1 µM, first compound 0.0949 µM
  viability, T/C: 85.8%
Second compound 1 µM, first compound 0.3 µM
  viability, T/C: 20.2%

## C#Cc1c(F)ccc2cc(O)cc(-c3ncc4c(N5CC6CCC(C5)N6)nc(OCC56CCCN5CC(F)C6)nc4c3F)c12 (stereo not given) + CCN1C(C(=O)NC23CCC(C(=O)O)(CC2)CC3)C(c2cccc(Cl)c2F)C2(C(=O)Nc3cc(Cl)ccc32)C12CCCCC2
Second compound 0.03 µM
  IC50: 119 nM
Second compound 0.0949 µM
  IC50: 35.4 nM
Second compound 0.3 µM
  IC50: < 31.6 nM
Second compound 0.949 µM
  IC50: < 31.6 nM
Second compound 3 µM
  IC50: < 31.6 nM
Second compound 0.03 µM, first compound 0.0316 µM
  viability, T/C: 57.1%
Second compound 0.03 µM, first compound 0.1 µM
  viability, T/C: 55.3%
Second compound 0.03 µM, first compound 0.316 µM
  viability, T/C: 24.1%
Second compound 0.03 µM, first compound 1 µM
  viability, T/C: 7.49%
Second compound 0.03 µM, first compound 3.16 µM
  viability, T/C: 4.76%
Second compound 0.03 µM, first compound 10 µM
  viability, T/C: 2.76%
Second compound 0.0949 µM, first compound 0.0316 µM
  viability, T/C: 52.6%
Second compound 0.0949 µM, first compound 0.1 µM
  viability, T/C: 26.3%
Second compound 0.0949 µM, first compound 0.316 µM
  viability, T/C: 7.13%
Second compound 0.0949 µM, first compound 1 µM
  viability, T/C: 3.79%
Second compound 0.0949 µM, first compound 3.16 µM
  viability, T/C: 2.21%
Second compound 0.0949 µM, first compound 10 µM
  viability, T/C: 2.17%
Second compound 0.3 µM, first compound 0.0316 µM
  viability, T/C: 27.4%
Second compound 0.3 µM, first compound 0.1 µM
  viability, T/C: 8.1%
Second compound 0.3 µM, first compound 0.316 µM
  viability, T/C: 3.14%
Second compound 0.3 µM, first compound 1 µM
  viability, T/C: 2.06%
Second compound 0.3 µM, first compound 3.16 µM
  viability, T/C: 1.62%
Second compound 0.3 µM, first compound 10 µM
  viability, T/C: 1.41%
Second compound 0.949 µM, first compound 0.0316 µM
  viability, T/C: 16.2%
Second compound 0.949 µM, first compound 0.1 µM
  viability, T/C: 5.72%
Second compound 0.949 µM, first compound 0.316 µM
  viability, T/C: 2.81%
Second compound 0.949 µM, first compound 1 µM
  viability, T/C: 2.32%
Second compound 0.949 µM, first compound 3.16 µM
  viability, T/C: 1.53%
Second compound 0.949 µM, first compound 10 µM
  viability, T/C: 1.08%
Second compound 3 µM, first compound 0.0316 µM
  viability, T/C: 7.02%
Second compound 3 µM, first compound 0.1 µM
  viability, T/C: 3.62%
Second compound 3 µM, first compound 0.316 µM
  viability, T/C: 2.69%
Second compound 3 µM, first compound 1 µM
  viability, T/C: 2.2%
Second compound 3 µM, first compound 3.16 µM
  viability, T/C: 1.71%
Second compound 3 µM, first compound 10 µM
  viability, T/C: 1.33%

From PubChem BioAssay AID1963426 (Molecular Pharmacology Branch, DTP, NCI, 2024)
